According to PubChem BioAssay AID248 (DTP/NCI, 2004):
Several values for one entry are separate records, joined by “and”; a condition that tells them apart may be missing. Identical values can stand only once. Toxic doses and inconclusive results are not listed. No stated cut-off is given here; in the data, active means T/C of 150% or more; inactive means T/C below 125%.

Tested on: L1210 leukemia ip in BDF1 mice, survival T/C
Assay: NCI In Vivo Anticancer Drug Screen. Data for tumor model L1210 Leukemia (intraperitoneal) in B6D2F1 (BDF1) mice
Conditions: endpoint: mean survival time, higher = longer survival
Summary of the method: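 Antitumor effect is assessed in tumor-bearing animals. Survival in the compound arm is compared with a vehicle-dosed control arm and expressed as their quotient.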

[1] = dose: 100.0 mg/kg/injection, schedule: Q01DX001 (ip), vehicle: other
[2] = dose: 100.0 mg/kg/injection, schedule: Q04DX002 (ip), vehicle: Klucel (hydroxypropylcellulose) (HPC)
[3] = dose: 100.0 mg/kg/injection, schedule: Q04DX003 (ip), vehicle: other
[4] = dose: 200.0 mg/kg/injection, schedule: Q01DX001 (ip), vehicle: other
[5] = dose: 200.0 mg/kg/injection, schedule: Q04DX002 (ip), vehicle: Klucel (hydroxypropylcellulose) (HPC)
[6] = dose: 200.0 mg/kg/injection, schedule: Q04DX003 (ip), vehicle: other
[7] = dose: 400.0 mg/kg/injection, schedule: Q01DX001 (ip), vehicle: other
[8] = dose: 400.0 mg/kg/injection, schedule: Q04DX003 (ip), vehicle: other
[9] = dose: 100.0 mg/kg/injection, schedule: Q04DX003 (ip), vehicle: saline
[10] = dose: 200.0 mg/kg/injection, schedule: Q04DX003 (ip), vehicle: saline
[11] = dose: 400.0 mg/kg/injection, schedule: Q04DX003 (ip), vehicle: saline
[12] = dose: 100.0 mg/kg/injection, schedule: Q04DX002 (ip), vehicle: saline with Tween-80
[13] = dose: 200.0 mg/kg/injection, schedule: Q04DX002 (ip), vehicle: saline with Tween-80
[14] = dose: 400.0 mg/kg/injection, schedule: Q04DX002 (ip), vehicle: saline with Tween-80
[15] = dose: 100.0 mg/kg/injection, schedule: Q01DX009 (ip), vehicle: Klucel (hydroxypropylcellulose) (HPC)
[16] = dose: 200.0 mg/kg/injection, schedule: Q01DX009 (ip), vehicle: Klucel (hydroxypropylcellulose) (HPC)
[17] = dose: 100.0 mg/kg/injection, schedule: Q01DX001 (ip), vehicle: saline
[18] = dose: 200.0 mg/kg/injection, schedule: Q01DX001 (ip), vehicle: saline
[19] = dose: 400.0 mg/kg/injection, schedule: Q01DX001 (ip), vehicle: saline
[20] = dose: 100.0 mg/kg/injection, schedule: Q01DX001 (ip), vehicle: Klucel (hydroxypropylcellulose) (HPC)
[21] = dose: 200.0 mg/kg/injection, schedule: Q01DX001 (ip), vehicle: Klucel (hydroxypropylcellulose) (HPC)
[22] = dose: 100.0 mg/kg/injection, schedule: Q04DX003 (ip), vehicle: saline with Tween-80
[23] = dose: 200.0 mg/kg/injection, schedule: Q04DX003 (ip), vehicle: saline with Tween-80
[24] = dose: 400.0 mg/kg/injection, schedule: Q04DX003 (ip), vehicle: saline with Tween-80
[25] = dose: 100.0 mg/kg/injection, schedule: Q04DX003 (ip), vehicle: acetone
[26] = dose: 200.0 mg/kg/injection, schedule: Q04DX003 (ip), vehicle: acetone
[27] = dose: 400.0 mg/kg/injection, schedule: Q04DX003 (ip), vehicle: acetone
[28] = dose: 50.0 mg/kg/injection, schedule: Q01DX009 (ip), vehicle: saline with Tween-80
[29] = dose: 100.0 mg/kg/injection, schedule: Q01DX009 (ip), vehicle: saline with Tween-80

Measured: T/C

CCCNC(=O)Oc1c(C)cccc1C
inactive: dose: 50.0 mg/kg/injection, schedule: Q01DX009 (ip), vehicle: carboxymethylcellulose (CMC) 105 % of control and 107 % of control | [1] 95 % of control | dose: 100.0 mg/kg/injection, schedule: Q01DX009 (ip), vehicle: carboxymethylcellulose (CMC) 96 % of control | [2] 92 % of control | dose: 100.0 mg/kg/injection, schedule: Q04DX002 (ip), vehicle: carboxymethylcellulose (CMC) 103 % of control and 104 % of control | [3] 103 % of control | [4] 96 % of control | dose: 200.0 mg/kg/injection, schedule: Q01DX009 (ip), vehicle: carboxymethylcellulose (CMC) 103 % of control | [5] 103 % of control | dose: 200.0 mg/kg/injection, schedule: Q04DX002 (ip), vehicle: carboxymethylcellulose (CMC) 97 % of control and 88 % of control | [6] 104 % of control | [7] 102 % of control | [8] 109 % of control

CCSc1cc(C(=O)O)cc([N+](=O)[O-])c1
inactive: [9] 104 % of control | [10] 93 % of control | [11] 94 % of control

CC(O)c1ccc2c(c1)Nc1ccccc1S2 (stereo not given)
inactive: [12] 91 % of control | [13] 105 % of control | [14] 91 % of control

CCN(CC)c1ccc(C(=C(c2ccc(N(CC)CC)cc2)c2ccc(N(CC)CC)cc2)c2ccc(N(CC)CC)cc2)cc1
inactive: dose: 50.0 mg/kg/injection, schedule: Q01DX009 (ip), vehicle: Klucel (hydroxypropylcellulose) (HPC) 88 % of control | [15] 101 % of control | dose: 100.0 mg/kg/injection, schedule: Q04DX003 (ip), vehicle: Klucel (hydroxypropylcellulose) (HPC) 90 % of control | [16] 91 % of control | dose: 200.0 mg/kg/injection, schedule: Q04DX003 (ip), vehicle: Klucel (hydroxypropylcellulose) (HPC) 101 % of control

CCCCCCc1cc2ccccc2cc1CCCC
inactive: [17] 102 % of control | [18] 100 % of control | [19] 97 % of control

CC(=O)c1ccc(Cl)c([N+](=O)[O-])c1
inactive: [20] 91 % of control | [15] 105 % of control | [21] 97 % of control | [16] 100 % of control | dose: 400.0 mg/kg/injection, schedule: Q01DX001 (ip), vehicle: Klucel (hydroxypropylcellulose) (HPC) 96 % of control

C1CCC(CCCC(CCCC2CCCC2)CCCC2CCCC2)C1
inactive: dose: 100.0 mg/kg/injection, schedule: Q01DX001 (ip), vehicle: saline with Tween-80 93 % of control | dose: 200.0 mg/kg/injection, schedule: Q01DX001 (ip), vehicle: saline with Tween-80 93 % of control | dose: 400.0 mg/kg/injection, schedule: Q01DX001 (ip), vehicle: saline with Tween-80 89 % of control

COc1ccc(C=Nc2ccccc2)cc1
inactive: [22] 103 % of control | [23] 97 % of control | [24] 97 % of control

C=CCN(CC=C)CCSC(=S)NCCOC
inactive: dose: 100.0 mg/kg/injection, schedule: Q01DX001 (ip), vehicle: acetone 100 % of control | [25] 107 % of control | dose: 200.0 mg/kg/injection, schedule: Q01DX001 (ip), vehicle: acetone 97 % of control | [26] 106 % of control | dose: 400.0 mg/kg/injection, schedule: Q01DX001 (ip), vehicle: acetone 90 % of control | [27] 107 % of control

O/N=C/c1ccc2ccccc2n1
inactive: dose: 18.75 mg/kg/injection, schedule: Q01DX009 (ip), vehicle: Klucel (hydroxypropylcellulose) (HPC) 105 % of control | dose: 18.75 mg/kg/injection, schedule: Q04DX003 (ip), vehicle: Klucel (hydroxypropylcellulose) (HPC) 97 % of control | dose: 37.5 mg/kg/injection, schedule: Q01DX009 (ip), vehicle: Klucel (hydroxypropylcellulose) (HPC) 100 % of control | dose: 37.5 mg/kg/injection, schedule: Q04DX003 (ip), vehicle: Klucel (hydroxypropylcellulose) (HPC) 103 % of control | dose: 75.0 mg/kg/injection, schedule: Q01DX009 (ip), vehicle: Klucel (hydroxypropylcellulose) (HPC) 113 % of control | dose: 75.0 mg/kg/injection, schedule: Q04DX003 (ip), vehicle: Klucel (hydroxypropylcellulose) (HPC) 97 % of control and 103 % of control

O=C(OCc1ccccc1CN1CCCC1)c1cccc(Br)c1
inactive: [20] 95 % of control | [21] 98 % of control

O=C(CC(=Nc1ccccc1)c1ccccc1)c1ccccc1.O=C(CC(=Nc1ccccc1)c1ccccc1)c1ccccc1.[Cu]
inactive: dose: 50.0 mg/kg/injection, schedule: Q04DX003 (ip), vehicle: saline with Tween-80 89 % of control | [22] 90 % of control

CSc1ccc(NC(=O)Nc2ccc(Cl)cc2C(=O)c2ccccc2)cc1
inactive: [15] 91 % of control | [16] 88 % of control

CCCCCCCCCCCCCCCCCC[N+](C)(C)Cc1cc(=O)c(O)co1
inactive: dose: 6.25 mg/kg/injection, schedule: Q01DX009 (ip), vehicle: saline 89 % of control | dose: 12.5 mg/kg/injection, schedule: Q01DX009 (ip), vehicle: saline 106 % of control | dose: 25.0 mg/kg/injection, schedule: Q01DX009 (ip), vehicle: saline 99 % of control

O=C(O)c1cc2ccccc2o1
inactive: [28] 90 % of control | [29] 97 % of control

O=C(O)CC1CCC2CC(O)c3cccc1c32 (stereo not given)
inactive: [25] 106 % of control | [26] 105 % of control | [27] 105 % of control

NP(N)(=O)c1ccccc1
inactive: [22] 107 % of control | [23] 118 % of control | [24] 105 % of control

O=C1OCC(O)C(O)C(O)C(O)C1O (stereo not given)
inactive: dose: 100.0 mg/kg/injection, schedule: Q01DX009 (ip), vehicle: saline 102 % of control | dose: 200.0 mg/kg/injection, schedule: Q01DX009 (ip), vehicle: saline 100 % of control | dose: 400.0 mg/kg/injection, schedule: Q01DX009 (ip), vehicle: saline 102 % of control

O=C(O)c1c(Cl)c(Cl)c(C(=O)O)c(Cl)c1Cl
inactive: [29] 95 % of control | dose: 200.0 mg/kg/injection, schedule: Q01DX009 (ip), vehicle: saline with Tween-80 93 % of control | dose: 400.0 mg/kg/injection, schedule: Q01DX009 (ip), vehicle: saline with Tween-80 89 % of control

O=C(O)C1CC(Br)C2CC1C(=O)O2 (stereo not given)
inactive: [9] 91 % of control | [10] 105 % of control | [11] 97 % of control

O=C(O)c1ccc[cH-]1.O=C(O)c1ccc[cH-]1.[Fe+2]
inactive: [2] 110 % of control | [5] 100 % of control | dose: 400.0 mg/kg/injection, schedule: Q04DX002 (ip), vehicle: Klucel (hydroxypropylcellulose) (HPC) 103 % of control

O=[N+]([O-])c1ccc(N/N=C(\c2ccccc2)c2ccc(O)cc2O)c([N+](=O)[O-])c1
inactive: [1] 91 % of control | [3] 95 % of control | [4] 91 % of control | [6] 96 % of control | [7] 95 % of control | [8] 96 % of control

O=C(Nc1ccccn1)c1ccccc1
inactive: [12] 99 % of control

Cc1ccc(S(=O)(=O)Oc2ccccc2NC(=O)c2ccccc2)cc1
inactive: [28] 96 % of control | [29] 96 % of control

c1ccc2c(c1)CCc1c-2[nH]c2c1ccc1ccccc12
inactive: [17] 91 % of control | [18] 111 % of control | [19] 94 % of control

Nc1ccc2c(c1)CCC2=O
inactive: [12] 98 % of control | [13] 102 % of control | [14] 90 % of control

O=c1[nH][nH]c(=S)c(=O)[nH]1
inactive: [17] 102 % of control | [18] 98 % of control | [19] 104 % of control

C=CCc1ccc(OC(=O)Nc2ccc(S(=O)(=O)N(C)C)cc2)c(OC)c1
inactive: [17] 94 % of control | [18] 91 % of control | [19] 91 % of control
